Results taken from PubChem BioAssay AID194 (DTP/NCI, 2004).
Several values for one entry are separate records, joined by “and”; a condition that tells them apart may be missing. Identical values can stand only once. Inconclusive results are not listed. The calls were made as follows: active = survival T/C of 150% or more; inactive = T/C below 125% in these data.

Test system: BDF1 mice, B16 melanoma s.c., survival/tumor T/C
Experiment: NCI In Vivo Anticancer Drug Screen. Data for tumor model B16 Melanoma (subcutaneous) in B6D2F1 (BDF1) mice
Procedure: The antitumor activity of compounds was measured in mice bearing transplantable tumors. Survival or tumor size were measured and the results are expressed as the measurement made in the treated group (T) divided by the measurement made in the vehicle treated control group (C). The tumor model used in this assay is B16 Melanoma (subcutaneous) in B6D2F1 (BDF1) mice

Measured: T/C

O=C(NP(=O)(N1CC1)N1CC1)c1cc(I)ccc1I
active: endpoint: median survival time, dose: 4.0 mg/kg/injection, schedule: Q02DX009 (ip), vehicle: saline, higher = longer survival 180 % of control | endpoint: median survival time, dose: 8.0 mg/kg/injection, schedule: Q02DX009 (ip), vehicle: saline, higher = longer survival 153 % of control | endpoint: median survival time, dose: 16.0 mg/kg/injection, schedule: Q02DX009 (ip), vehicle: saline, higher = longer survival 180 % of control
inactive: endpoint: median survival time, dose: 1.0 mg/kg/injection, schedule: Q02DX009 (ip), vehicle: saline with Tween-80, higher = longer survival 96 % of control | endpoint: median survival time, dose: 1.0 mg/kg/injection, schedule: Q02DX009 (ip), vehicle: saline, higher = longer survival 103 % of control | endpoint: median survival time, dose: 4.0 mg/kg/injection, schedule: Q01DX001 (oral), vehicle: saline with Tween-80, higher = longer survival 98 % of control | endpoint: median survival time, dose: 4.0 mg/kg/injection, schedule: Q02DX009 (ip), vehicle: saline with Tween-80, higher = longer survival 95 % of control | endpoint: median survival time, dose: 8.0 mg/kg/injection, schedule: Q01DX001 (oral), vehicle: saline with Tween-80, higher = longer survival 92 % of control | endpoint: median survival time, dose: 8.0 mg/kg/injection, schedule: Q02DX009 (ip), vehicle: saline with Tween-80, higher = longer survival 88 % of control | endpoint: median survival time, dose: 16.0 mg/kg/injection, schedule: Q01DX001 (oral), vehicle: saline with Tween-80, higher = longer survival 91 % of control | endpoint: median survival time, dose: 16.0 mg/kg/injection, schedule: Q02DX009 (ip), vehicle: saline with Tween-80, higher = longer survival 117 % of control | endpoint: median survival time, dose: 32.0 mg/kg/injection, schedule: Q01DX001 (oral), vehicle: saline with Tween-80, higher = longer survival 93 % of control | endpoint: median survival time, dose: 32.0 mg/kg/injection, schedule: Q02DX009 (ip), vehicle: saline, higher = longer survival 97 % of control | endpoint: median survival time, dose: 64.0 mg/kg/injection, schedule: Q01DX001 (oral), vehicle: saline with Tween-80, higher = longer survival 105 % of control | endpoint: median survival time, dose: 512.0 mg/kg/injection, schedule: Q01DX001 (oral), vehicle: saline with Tween-80, higher = longer survival 88 % of control

O=C1c2c(O)ccc(O)c2C(=O)c2c(NCCNCCO)ccc(NCCNCCO)c21
inactive: endpoint: median survival time, dose: 0.25 mg/kg/injection, schedule: Q01DX009 (ip), vehicle: other, higher = longer survival 102 % of control | endpoint: median survival time, dose: 0.5 mg/kg/injection, schedule: Q01DX009 (ip), vehicle: other, higher = longer survival 89 % of control | endpoint: median survival time, dose: 0.5 mg/kg/injection, schedule: Q01DX009 (ip), vehicle: saline with Tween-80, higher = longer survival 120 % of control | endpoint: median survival time, dose: 1.0 mg/kg/injection, schedule: Q01DX009 (ip), vehicle: other, higher = longer survival 106 % of control | endpoint: median survival time, dose: 2.0 mg/kg/injection, schedule: Q01DX009 (ip), vehicle: other, higher = longer survival 90 % of control | endpoint: median survival time, dose: 2.0 mg/kg/injection, schedule: Q01DX009 (ip), vehicle: saline with Tween-80, higher = longer survival 102 % of control and 123 % of control

Cc1c[n+]2c3ccccc3c3ccccc3c2s1
inactive: endpoint: median survival time, dose: 20.0 mg/kg/injection, schedule: Q01DX009 (ip), vehicle: Klucel (hydroxypropylcellulose) (HPC), higher = longer survival 121 % of control

CS(=O)(=O)OCCCCOS(C)(=O)=O
97 % of control and 83 % of control: endpoint: median tumor weight (est.), dose: 25.0 mg/kg/injection, schedule: Q01DX009 (ip), vehicle: Klucel (hydroxypropylcellulose) (HPC), higher = larger tumour
61 % of control: endpoint: median tumor weight (est.), dose: 50.0 mg/kg/injection, schedule: Q01DX009 (ip), vehicle: Klucel (hydroxypropylcellulose) (HPC), higher = larger tumour
88 % of control: endpoint: median tumor weight (est.), dose: 25.0 mg/kg/injection, schedule: Q01DX009 (ip), vehicle: saline with Tween-80, higher = larger tumour
162 % of control: endpoint: median tumor weight (est.), dose: 12.5 mg/kg/injection, schedule: Q01DX009 (ip), vehicle: saline with Tween-80, higher = larger tumour
69 % of control: endpoint: median tumor weight (est.), dose: 50.0 mg/kg/injection, schedule: Q01DX009 (ip), vehicle: saline with Tween-80, higher = larger tumour
inactive: endpoint: median survival time, dose: 12.5 mg/kg/injection, schedule: Q01DX009 (ip), vehicle: Klucel (hydroxypropylcellulose) (HPC), higher = longer survival 88 % of control and 100 % of control | endpoint: median survival time, dose: 25.0 mg/kg/injection, schedule: Q01DX009 (ip), vehicle: saline with Tween-80, higher = longer survival 100 % of control | endpoint: median survival time, dose: 50.0 mg/kg/injection, schedule: Q01DX009 (ip), vehicle: saline with Tween-80, higher = longer survival 100 % of control

CN(C)c1ccc(C(=O)c2ccc(N(C)C)cc2)cc1
inactive: endpoint: median survival time, dose: 100.0 mg/kg/injection, schedule: Q01DX009 (ip), vehicle: Klucel (hydroxypropylcellulose) (HPC), higher = longer survival 113 % of control | endpoint: median survival time, dose: 200.0 mg/kg/injection, schedule: Q01DX009 (ip), vehicle: Klucel (hydroxypropylcellulose) (HPC), higher = longer survival 98 % of control | endpoint: median survival time, dose: 400.0 mg/kg/injection, schedule: Q01DX009 (ip), vehicle: Klucel (hydroxypropylcellulose) (HPC), higher = longer survival 110 % of control

O=NN(CCCl)C(=O)NC1CCC(=O)NC1=O (stereo not given)
inactive: endpoint: median survival time, dose: 1.0 mg/kg/injection, schedule: Q01DX009 (ip), vehicle: Klucel (hydroxypropylcellulose) (HPC), higher = longer survival 115 % of control | endpoint: median survival time, dose: 1.56 mg/kg/injection, schedule: Q01DX007 (ip), vehicle: Klucel (hydroxypropylcellulose) (HPC), higher = longer survival 97 % of control | endpoint: median survival time, dose: 4.32 mg/kg/injection, schedule: Q01DX007 (ip), vehicle: Klucel (hydroxypropylcellulose) (HPC), higher = longer survival 98 % of control | endpoint: median survival time, dose: 7.2 mg/kg/injection, schedule: Q01DX007 (ip), vehicle: Klucel (hydroxypropylcellulose) (HPC), higher = longer survival 121 % of control | endpoint: median survival time, dose: 23.0 mg/kg/injection, schedule: Q01DX001 (ip), vehicle: gum acacia, higher = longer survival 89 % of control
active: endpoint: median survival time, dose: 4.0 mg/kg/injection, schedule: Q01DX009 (ip), vehicle: Klucel (hydroxypropylcellulose) (HPC), higher = longer survival 168 % of control and 228 % of control | endpoint: median survival time, dose: 17.0 mg/kg/injection, schedule: Q01DX001 (ip), vehicle: gum acacia, higher = longer survival 177 % of control
